Test results as given in US5731452A, “7-thiaprostaglandins and method of production thereof” (Teijin Limited, priority 1994, dated 1998).

Columns and labels:
[1] = test system: cell migration induced by MCP-1 in human blood monocytes; assay: Activity for inhibiting cell migration induced by MCP-1 (human blood monocytes); format: cell-based; conditions: Monocyte, 2 h, 20 ng/ml recombinant human MCP-1, 37° C., two hours
[2] = test system: Rat Carotid Artery; assay: Suppressing thickening of intima after trauma to rat carotid artery endothelium by balloon catheter; format: in vivo, Wistar rat; conditions: for thickening of the neointima of the carotid artery (in words) / Suppression rate (intima thickening): 3.2 μg/rat/hr s.c.; for Intima (area) / Media (area) / Intima/Media: 3.2 μg/rat/hr s.c. miniosmotic pump, day 14, average ± standard error; for Intima (area): 3 days before to 11 days after surgery; for Intima (area) / Intima/Media: * p < 0.05 vs control; for Suppression rate (intima thickening): (1-T/C)×100 of Intima/Media
Method: The test was performed in the following manner in accordance with the method of Clowes et al. (Lab. Invest., 49, 206, 1983). Male Wistar rats of a body weight of 300 to 350 g were used. The neck of each rat was opened under anesthesia by sodium pentobarbitol, then a balloon catheter (Fogarty, 2F) was inserted from the right external carotid artery until the starting portion of the common carotid artery. The balloon was expanded by saline to an extent causing a light resistance, then the catheter was pulled out in that state up to the carotid artery to give trauma to the intima. This procedure was repeated three times, then the catheter was withdrawn and the external carotid artery was ligated. After 14 days, the chest was opened under anesthesia by diethyl ether, refluxing and immobilization were performed from the aorti arch by a Karnoa solution (methanol:chloroform:acetic acid=6:3:1), then the right common carotid artery was excised and immobilized by neutral formalin solution. The immobilized carotid artery was dyed by Elastica van Gieson dye, then the areas of the media and thickened portion of the intima were measured by an image resolution device (LUZEX2D).
(§1) The test compound began to be administered subcutaneously at a rate of 3.2 μg/rat/hr using a miniosmotic pump buried in the back of the rat from three days before the surgery and was continued until 11 days after the surgery. The activity of the test compound in suppressing intima thickening was found from the following formula.

[3] = test system: Rabbit Carotid Artery; assay: Suppressing thickening of intima after trauma to rabbit carotid artery endothelium by balloon catheter; format: in vivo, New Zealand white rabbit
Method: The test was performed in the following manner in accordance with the method of Clowes et al. (Lab. Invest., 49, 206, 1983). Use was made of New Zealand white rabbits (male) of approximately 4 kg body weight. The neck portion of each rabbit was opened under anesthesia by sodium pentobarbitol, then a balloon catheter (Fogarty, 3F) was inserted from the right external carotid artery until the starting portion of the common carotid artery. The balloon was expanded by saline to an extent causing a light resistance, then the catheter was pulled out in that state up to the carotid artery to give trauma to the intima. This procedure was performed once, then the catheter was withdrawn and the external carotid artery was ligated. After 10 days, the chest was opened under anesthesia by pentobarbitol and the right common carotid artery was removed and immobilized by a neutral formalin solution. The immobilized carotid artery was dyed by Elastica van Gieson dye, then the areas of the media and intima were measured by an image resolution device (LUZEX2D).
as §1, with “of 32 μg/rabbit/hr” for “of 3.2 μg/rat/hr”, “the rabbit” for “the rat”, “until 10” for “until 11”, “in inhibiting” for “in suppressing”
Intima thickening suppression rate (%)=(1-T/C)×100

[4] = test system: rat platelet; assay: Rat platelet aggregation inhibiting activity; format: cell-based; conditions: rat platelet rich plasma; adenosine 2-phosphate induced; 37° C., one minute
Method: (§2) Wistar rats (males, approximately 400 g) were made to fast for one day, the entire blood was removed from the chest artery under anesthesia by ether, then a 1/10 volume of 3.8% aqueous solution of sodium citrate was added and immediately mixed in. The solution was centrifuged at 1000 rpm for 10 minutes, then the upper layer was used as the platelet rich plasma. The lower layer was centrifuged at 3000 rpm for 10 minutes and the upper layer of that was used as the platelet poor plasma. The platelet rich plasma was diluted by the platelet poor plasma to give a number of platelets of 3.5×10^8 /mm^3. This was used for the measurement. Note that the measurement of the platelets was performed using an automatic blood cell counter MEK-4500 (Nihon Koden). The measurement of the platelet aggregation was performed by measuring the turbidity using an NBS HEMA TRACER 801 (M.C. Medical). 90 μl of the platelet solution was inserted in a cuvette, then 5 μl each of the test compounds was added to give the target final concentration. The result was heated for one minute at 37° C., then 5 μl of a 100 μM aqueous solution of adenosine 2-phosphate (M.C. Medical) was added to induce platelet aggregation. The aggregation inhibiting activity was found from the following formula.
(§3) Aggregation inhibiting rate (%)={1-(maximum change of turbidity at time of
(§4) addition of drug)/(maximum change of turbidity at time of non-addition of
(§5) Further, the concentration of the compound giving 50% inhibition was used as the IC50.

[5] = test system: human platelet; assay: Human platelet aggregation inhibiting activity; format: cell-based; conditions: 5 min, human plasma, adenosine 2-phosphate induced, 5 minutes at 37° C.
Method: as §2, §3, §4, §5
50 ml portions of venous blood supplied from healthy human volunteers were used to prepare the platelet rich plasma and the platelet poor plasma in the same way as above. The measurement of the platelet aggregation was performed in the same way as above. However, unlike with the measurement of the rat platelet aggregation inhibiting activity, the test compound was added to the platelet poor plasma in advance and warmed for 5 minutes at 37° C., then the platelet rich plasma was added to give a number of platelets of 3.5×10^8 /mm^3. At the same time, 5 μl of 100 μM an aqueous solution of adenosine 2-phosphate (M.C. Medical) was added to induce platelet aggregation. The aggregation inhibiting activity was calculated in the same way as mentioned above.

[6] = 32 μg/rabbit/hr s.c. miniosmotic pump, day 10, average ± standard error

`CCCCC(C)CC(O)/C=C/[C@@H]1C(SCCCCCC(=O)OC)=C(OC(=O)CCC)C[C@H]1O` (stereo partly shown) gave an IC50 [1] of 1 nM.
With `CCCC[C@@H](C)C[C@H](O)/C=C/[C@@H]1C(SCCCCCC(=O)OC)=C(OC(=O)CCC)C[C@H]1O` [Example 2, methyl(11R,12S,13E,15S,17R)-9-butyryloxy-11,15-dihydroxy-17,20-dimethyl-7-thiaprosta-8,13-dienoate] the “thickening of the neointima of the carotid artery (in words)” value [2] was “suppresses the thickening of the neointima of the carotid artery”, the “Intima (area)” value [2] was 0.155 mm^2 and the “Media (area)” value [2] was 0.197 mm^2. For the same molecule, the Intima/Media [2] was 0.758, the “Suppression rate (intima thickening)” value [2] was 45.8% and the “Intima (area)” value ([3]; 32 μg/rabbit/hr s.c. miniosmotic pump, 3 days before to 10 days after surgery, day 10, average ± standard error) was 0.055 mm^2. The Intima/Media [3, 6] was 0.152, the “Media (area)” value [3, 6] was 0.367 mm^2 and the “Suppression rate (intima thickening)” value ([3]; (1-T/C)×100 of Intima/Media, 32 μg/rabbit/hr s.c.) was 29.9%.
In the case of `CCCC(=O)OC1=C(SCCCCCC(=O)OC)[C@@H](/C=C/[C@@H](O)C2CCCCC2)[C@H](O)C1` [Example 17, methyl(11R,12S,13E,15S)-9-butyryloxy-11,15-dihydroxy-15-cyclohexyl-16,17,18,19,20-pentanor-7-thiaprosta-8,13-dienoate], the “thickening of the neointima of the carotid artery (in words)” value [2] is reported as “suppresses the thickening of the neointima of the carotid artery”, the “Intima (area)” value [2] is reported as 0.167 mm^2 and the “Media (area)” value [2] is reported as 0.211 mm^2. For the same molecule, the Intima/Media [2] was 0.784 and the “Suppression rate (intima thickening)” value [2] was 37.5%.
For `CCCCC[C@H](O)/C=C/[C@@H]1C(SCCCCCC(=O)O)=C(OC(=O)CCC)C[C@H]1O` [drawing 181], the IC50 [4] was 300 nM.
For `CCCC(=O)OC1=C(SCCCCCC(=O)OC)[C@@H](/C=C/[C@@H](O)C2CCCCC2)[C@H](O)C1` [drawing 182], the IC50 [5] was 120 nM.
In the case of `CCCCC(C)C[C@H](O)/C=C/[C@@H]1C(SCCCCCC(=O)OC)=C(OC(=O)CCC)C[C@H]1O` (stereo partly shown) [drawing 183], the IC50 [5] is reported as 58 nM.
`CCCC(=O)OC1=C(SCCCCCC(=O)OC)[C@@H](/C=C/C(O)Cc2ccccc2)[C@H](O)C1` (stereo partly shown) [drawing 184] gave an IC50 [5] of 50 nM.
Work on `CCCC(=O)OC1=C(SCCCCCC(=O)OC)[C@@H](/C=C/C(O)[C@H](C)c2ccccc2)[C@H](O)C1` (stereo partly shown) [drawing 185] yielded an IC50 [5] of 49 nM.
Work on `CCCC(=O)OC1=C(SCCCCCC(=O)OC)[C@@H](/C=C/C(O)C(C)c2ccccc2)[C@H](O)C1` (stereo partly shown) [drawing 186] yielded an IC50 [5] of 105 nM.
For `CCCCC(C)C[C@H](O)/C=C/[C@@H]1C(SCCCOCC(=O)OC)=C(OC(=O)CCC)C[C@H]1O` (stereo partly shown) [drawing 187], the IC50 [5] was 59 nM.
